Measurements from the NIST ThermoML archive (doi:10.1021/je034177v).

Test: xn = mol fraction of the nth substance listed
Conditions: 101 kPa, Liquid; for speed of sound: Pulse-echo method; for mass density: Vibrating tube method

ClCCCCCCCl [1,6-dichlorohexane] + CCCCCCCCCCCC
Conditions | mass density [kg/m3] | speed of sound [m/s]
278.15 K, x1 = 0.0498 | 769.76 | 1355
278.15 K, x1 = 0.1003 | 780.41 | 1353.3
278.15 K, x1 = 0.1497 | 791.41 | 1352
278.15 K, x1 = 0.2527 | 815.84 | 1350.4
278.15 K, x1 = 0.4017 | 855.12 | 1350.4
278.15 K, x1 = 0.502 | 884.56 | 1351.9
278.15 K, x1 = 0.6 | 916.3 | 1355.1
278.15 K, x1 = 0.7011 | 952.18 | 1360.1
278.15 K, x1 = 0.7986 | 990.33 | 1366.8
278.15 K, x1 = 0.8998 | 1034.17 | 1376.1
278.15 K, x1 = 0.9493 | 1057.53 | 1381.5
278.15 K, x1 = 0.9691 | 1067.22 | 1383.7
278.15 K, x1 = 1 | 1082.7 | 1387.4
283.15 K, x1 = 0.0498 | 766.11 | 1335.5
283.15 K, x1 = 0.1003 | 776.72 | 1333.9
283.15 K, x1 = 0.1497 | 787.68 | 1332.7
283.15 K, x1 = 0.2527 | 812 | 1331.2
283.15 K, x1 = 0.4017 | 851.13 | 1331.4
283.15 K, x1 = 0.502 | 880.48 | 1333.3
283.15 K, x1 = 0.6 | 912.1 | 1336.7
283.15 K, x1 = 0.7011 | 947.86 | 1342
283.15 K, x1 = 0.7986 | 985.89 | 1348.9
283.15 K, x1 = 0.8998 | 1029.59 | 1358.4
283.15 K, x1 = 0.9493 | 1052.88 | 1364
283.15 K, x1 = 0.9691 | 1062.53 | 1366.2
283.15 K, x1 = 1 | 1077.97 | 1370
288.15 K, x1 = 0.0498 | 762.46 | 1315.7
288.15 K, x1 = 0.1003 | 773.04 | 1314.3
288.15 K, x1 = 0.1497 | 783.94 | 1313.2
288.15 K, x1 = 0.2527 | 808.17 | 1311.8
288.15 K, x1 = 0.4017 | 847.16 | 1312.4
288.15 K, x1 = 0.502 | 876.39 | 1314.5
288.15 K, x1 = 0.6 | 907.89 | 1318.1
288.15 K, x1 = 0.7011 | 943.53 | 1323.6
288.15 K, x1 = 0.7986 | 981.42 | 1330.7
288.15 K, x1 = 0.8998 | 1024.98 | 1340.4
288.15 K, x1 = 0.9493 | 1048.19 | 1346.1
288.15 K, x1 = 0.9691 | 1057.82 | 1348.4
288.15 K, x1 = 1 | 1073.22 | 1352.3
293.15 K, x1 = 0.0498 | 758.82 | 1296.3
293.15 K, x1 = 0.1003 | 769.35 | 1294.9
293.15 K, x1 = 0.1497 | 780.2 | 1293.9
293.15 K, x1 = 0.2527 | 804.33 | 1292.7
293.15 K, x1 = 0.4017 | 843.16 | 1293.5
293.15 K, x1 = 0.502 | 872.29 | 1295.9
293.15 K, x1 = 0.6 | 903.68 | 1299.7
293.15 K, x1 = 0.7011 | 939.19 | 1305.4
293.15 K, x1 = 0.7986 | 976.96 | 1312.8
293.15 K, x1 = 0.8998 | 1020.39 | 1322.7
293.15 K, x1 = 0.9493 | 1043.52 | 1328.4
293.15 K, x1 = 0.9691 | 1053.11 | 1330.9
293.15 K, x1 = 1 | 1068.47 | 1334.8
298.15 K, x1 = 0.0498 | 755.16 | 1276.8
298.15 K, x1 = 0.1003 | 765.66 | 1275.5
298.15 K, x1 = 0.1497 | 776.45 | 1274.6
298.15 K, x1 = 0.2527 | 800.48 | 1273.7
298.15 K, x1 = 0.4017 | 839.16 | 1274.7
298.15 K, x1 = 0.502 | 868.18 | 1277.3
298.15 K, x1 = 0.6 | 899.46 | 1281.3
298.15 K, x1 = 0.7011 | 934.87 | 1287.3
298.15 K, x1 = 0.7986 | 972.49 | 1294.8
298.15 K, x1 = 0.8998 | 1015.8 | 1304.9
298.15 K, x1 = 0.9493 | 1038.85 | 1310.8
298.15 K, x1 = 0.9691 | 1048.42 | 1313.2
298.15 K, x1 = 1 | 1063.74 | 1317.3
303.15 K, x1 = 0.0498 | 751.5 | 1257.6
303.15 K, x1 = 0.1003 | 761.96 | 1256.4
303.15 K, x1 = 0.1497 | 772.7 | 1255.5
303.15 K, x1 = 0.2527 | 796.64 | 1254.7
303.15 K, x1 = 0.4017 | 835.16 | 1256.1
303.15 K, x1 = 0.502 | 864.08 | 1258.8
303.15 K, x1 = 0.6 | 895.24 | 1263.1
303.15 K, x1 = 0.7011 | 930.52 | 1269.2
303.15 K, x1 = 0.7986 | 968.02 | 1277
303.15 K, x1 = 0.8998 | 1011.2 | 1287.3
303.15 K, x1 = 0.9493 | 1034.18 | 1293.3
303.15 K, x1 = 0.9691 | 1043.71 | 1295.8
303.15 K, x1 = 1 | 1059 | 1299.9
308.15 K, x1 = 0.0498 | 747.81 | 1238.5
308.15 K, x1 = 0.1003 | 758.26 | 1237.4
308.15 K, x1 = 0.1497 | 768.93 | 1236.6
308.15 K, x1 = 0.2527 | 792.76 | 1236
308.15 K, x1 = 0.4017 | 831.14 | 1237.6
308.15 K, x1 = 0.502 | 859.96 | 1240.5
308.15 K, x1 = 0.6 | 891.01 | 1245
308.15 K, x1 = 0.7011 | 926.17 | 1251.3
308.15 K, x1 = 0.7986 | 963.55 | 1259.3
308.15 K, x1 = 0.8998 | 1006.61 | 1269.8
308.15 K, x1 = 0.9493 | 1029.52 | 1276
308.15 K, x1 = 0.9691 | 1039 | 1278.5
308.15 K, x1 = 1 | 1054.25 | 1282.7
313.15 K, x1 = 0.0498 | 744.13 | 1219.6
313.15 K, x1 = 0.1003 | 754.53 | 1218.5
313.15 K, x1 = 0.1497 | 765.15 | 1217.9
313.15 K, x1 = 0.2527 | 788.89 | 1217.5
313.15 K, x1 = 0.4017 | 827.13 | 1219.3
313.15 K, x1 = 0.502 | 855.84 | 1222.4
313.15 K, x1 = 0.6 | 886.78 | 1227
313.15 K, x1 = 0.7011 | 921.82 | 1233.6
313.15 K, x1 = 0.7986 | 959.07 | 1241.8
313.15 K, x1 = 0.8998 | 1002 | 1252.5
313.15 K, x1 = 0.9493 | 1024.85 | 1258.8
313.15 K, x1 = 0.9691 | 1034.3 | 1261.3
313.15 K, x1 = 1 | 1049.5 | 1265.7
318.15 K, x1 = 0.0498 | 740.46 | 1200.9
318.15 K, x1 = 0.1003 | 750.82 | 1199.9
318.15 K, x1 = 0.1497 | 761.37 | 1199.3
318.15 K, x1 = 0.2527 | 785.03 | 1199
318.15 K, x1 = 0.4017 | 823.12 | 1201.2
318.15 K, x1 = 0.502 | 851.72 | 1204.4
318.15 K, x1 = 0.6 | 882.55 | 1209.2
318.15 K, x1 = 0.7011 | 917.48 | 1216
318.15 K, x1 = 0.7986 | 954.61 | 1224.3
318.15 K, x1 = 0.8998 | 997.44 | 1235.3
318.15 K, x1 = 0.9493 | 1020.2 | 1241.7
318.15 K, x1 = 0.9691 | 1029.61 | 1244.3
318.15 K, x1 = 1 | 1044.78 | 1248.7
323.15 K, x1 = 0.0498 | 736.76 | 1182.4
323.15 K, x1 = 0.1003 | 747.09 | 1181.4
323.15 K, x1 = 0.1497 | 757.6 | 1180.9
323.15 K, x1 = 0.2527 | 781.15 | 1180.8
323.15 K, x1 = 0.4017 | 819.09 | 1183.1
323.15 K, x1 = 0.502 | 847.59 | 1186.5
323.15 K, x1 = 0.6 | 878.32 | 1191.6
323.15 K, x1 = 0.7011 | 913.12 | 1198.5
323.15 K, x1 = 0.7986 | 950.13 | 1207
323.15 K, x1 = 0.8998 | 992.83 | 1218.2
323.15 K, x1 = 0.9493 | 1015.52 | 1224.7
323.15 K, x1 = 0.9691 | 1024.9 | 1227.4
323.15 K, x1 = 1 | 1040.03 | 1231.8
328.15 K, x1 = 0.0498 | 733.07 | 1163.9
328.15 K, x1 = 0.1003 | 743.36 | 1163
328.15 K, x1 = 0.1497 | 753.83 | 1162.6
328.15 K, x1 = 0.2527 | 777.28 | 1162.6
328.15 K, x1 = 0.4017 | 815.09 | 1165.2
328.15 K, x1 = 0.502 | 843.49 | 1168.8
328.15 K, x1 = 0.6 | 874.11 | 1174
328.15 K, x1 = 0.7011 | 908.81 | 1181.1
328.15 K, x1 = 0.7986 | 945.71 | 1189.9
328.15 K, x1 = 0.8998 | 988.3 | 1201.2
328.15 K, x1 = 0.9493 | 1010.92 | 1207.8
328.15 K, x1 = 0.9691 | 1020.27 | 1210.5
328.15 K, x1 = 1 | 1035.37 | 1215.1
